Assay results as given in the NIST ThermoML archive (doi:10.1016/j.jct.2010.09.003).

What was measured:
[1] = Ring tensiometer
[2] = xn = mol fraction of the nth substance listed; conditions: Ring tensiometer

CC#N [acetonitrile]
[1]
Conditions	surface tension liquid-gas [mN/m]
283.15 K	29.73
298.15 K	28.2
308.15 K	27.47

OCCO [1,2-ethanediol] + CC#N
[2]
Conditions	surface tension liquid-gas [mN/m]
283.15 K, x2 = 0.0102	47.92
283.15 K, x2 = 0.0202	46.5
283.15 K, x2 = 0.0349	44.85
283.15 K, x2 = 0.0488	41.85
283.15 K, x2 = 0.0611	41.1
283.15 K, x2 = 0.0851	39
283.15 K, x2 = 0.0936	38.18
283.15 K, x2 = 0.102	36.99
283.15 K, x2 = 0.1141	36.8
283.15 K, x2 = 0.126	35.72
283.15 K, x2 = 0.1413	34
283.15 K, x2 = 0.1561	33.22
283.15 K, x2 = 0.1765	32.67
283.15 K, x2 = 0.1902	32.45
283.15 K, x2 = 0.2426	32.01
283.15 K, x2 = 0.29	31.75
283.15 K, x2 = 0.3379	31.68
283.15 K, x2 = 0.3895	31.49
283.15 K, x2 = 0.4202	31.44
283.15 K, x2 = 0.5197	31.05
283.15 K, x2 = 0.7564	30.55
283.15 K, x2 = 0.9008	30.01
298.15 K, x2 = 0.0109	47.82
298.15 K, x2 = 0.0199	47.46
298.15 K, x2 = 0.0361	46.85
298.15 K, x2 = 0.072	45.45
298.15 K, x2 = 0.0845	44.97
298.15 K, x2 = 0.1012	44.23
298.15 K, x2 = 0.1402	42.7
298.15 K, x2 = 0.1599	40.49
298.15 K, x2 = 0.1992	40.13
298.15 K, x2 = 0.2569	37.76
298.15 K, x2 = 0.2999	36.35
298.15 K, x2 = 0.35	34.9
298.15 K, x2 = 0.4345	33
298.15 K, x2 = 0.4888	32.25
298.15 K, x2 = 0.5699	31.53
298.15 K, x2 = 0.6321	31.01
298.15 K, x2 = 0.7099	30.49
298.15 K, x2 = 0.7765	30.17
298.15 K, x2 = 0.8499	29.71
308.15 K, x2 = 0.0202	46.45
308.15 K, x2 = 0.0349	45.63
308.15 K, x2 = 0.0674	43.75
308.15 K, x2 = 0.0851	42.8
308.15 K, x2 = 0.1021	41.75
308.15 K, x2 = 0.1568	39.26
308.15 K, x2 = 0.1852	37.85
308.15 K, x2 = 0.1987	37.18
308.15 K, x2 = 0.2426	35.5
308.15 K, x2 = 0.2976	34.05
308.15 K, x2 = 0.4144	31.64
308.15 K, x2 = 0.4734	30.85
308.15 K, x2 = 0.5101	30.41
308.15 K, x2 = 0.6453	28.95
308.15 K, x2 = 0.7654	28.53
308.15 K, x2 = 0.9352	27.83

O [water]
[1]
Conditions	surface tension liquid-gas [mN/m]
283.15 K	74.47
298.15 K	72.06
308.15 K	70.41

OCCO [1,2-ethanediol]
[1]
Conditions	surface tension liquid-gas [mN/m]
283.15 K	49.27
298.15 K	48.22
308.15 K	47.29

OCCO [1,2-ethanediol] + O
[2]
Conditions	surface tension liquid-gas [mN/m]
283.15 K, x1 = 0.0078	73.5
283.15 K, x1 = 0.0132	72.59
283.15 K, x1 = 0.0216	71.19
283.15 K, x1 = 0.0334	69.9
283.15 K, x1 = 0.0498	68.63
283.15 K, x1 = 0.0632	67.15
283.15 K, x1 = 0.0875	64.99
283.15 K, x1 = 0.1152	63.9
283.15 K, x1 = 0.1436	62.16
283.15 K, x1 = 0.1635	60.8
283.15 K, x1 = 0.2002	59.26
283.15 K, x1 = 0.2509	57.72
283.15 K, x1 = 0.2895	56.46
283.15 K, x1 = 0.4112	54.53
283.15 K, x1 = 0.4753	53.16
283.15 K, x1 = 0.6668	51.62
283.15 K, x1 = 0.7562	50.82
283.15 K, x1 = 0.8958	49.84
298.15 K, x1 = 0.0083	71.18
298.15 K, x1 = 0.0144	70.41
298.15 K, x1 = 0.0246	69.25
298.15 K, x1 = 0.0351	68.12
298.15 K, x1 = 0.0466	66.95
298.15 K, x1 = 0.0556	66.14
298.15 K, x1 = 0.0899	63.74
298.15 K, x1 = 0.1042	62.68
298.15 K, x1 = 0.1342	61.16
298.15 K, x1 = 0.1624	59.99
298.15 K, x1 = 0.1989	58.5
298.15 K, x1 = 0.2499	56.89
298.15 K, x1 = 0.2996	55.65
298.15 K, x1 = 0.401	53.63
298.15 K, x1 = 0.4999	52.22
298.15 K, x1 = 0.65	50.65
298.15 K, x1 = 0.75	49.82
298.15 K, x1 = 0.8987	48.68
308.15 K, x1 = 0.008	69.14
308.15 K, x1 = 0.0141	68.26
308.15 K, x1 = 0.0253	66.81
308.15 K, x1 = 0.0353	65.67
308.15 K, x1 = 0.0511	64.1
308.15 K, x1 = 0.0556	63.7
308.15 K, x1 = 0.0905	61.09
308.15 K, x1 = 0.1113	59.86
308.15 K, x1 = 0.1445	58.26
308.15 K, x1 = 0.1602	57.62
308.15 K, x1 = 0.2132	55.84
308.15 K, x1 = 0.2485	54.9
308.15 K, x1 = 0.3201	53.39
308.15 K, x1 = 0.4126	51.95
308.15 K, x1 = 0.5054	50.84
308.15 K, x1 = 0.6501	49.52
308.15 K, x1 = 0.7406	48.84
308.15 K, x1 = 0.8875	47.91

CC#N [acetonitrile] + O
[2]
Conditions	surface tension liquid-gas [mN/m]
283.15 K, x1 = 0.0051	70.6
283.15 K, x1 = 0.0101	67.18
283.15 K, x1 = 0.0151	64.36
283.15 K, x1 = 0.0217	61.23
283.15 K, x1 = 0.0298	57.99
283.15 K, x1 = 0.0377	55.36
283.15 K, x1 = 0.0486	52.34
283.15 K, x1 = 0.0593	49.47
283.15 K, x1 = 0.0871	44.54
283.15 K, x1 = 0.1011	42.3
283.15 K, x1 = 0.1431	38.03
283.15 K, x1 = 0.1615	35.51
283.15 K, x1 = 0.1847	34.35
283.15 K, x1 = 0.2068	33.9
283.15 K, x1 = 0.2327	33.51
283.15 K, x1 = 0.3098	32.89
283.15 K, x1 = 0.3971	32.56
283.15 K, x1 = 0.4878	32.29
283.15 K, x1 = 0.6557	32.06
283.15 K, x1 = 0.8056	31.26
283.15 K, x1 = 0.9592	29.83
298.15 K, x1 = 0.0149	62.36
298.15 K, x1 = 0.0298	55.92
298.15 K, x1 = 0.0516	49.39
298.15 K, x1 = 0.0653	45.96
298.15 K, x1 = 0.086	42.2
298.15 K, x1 = 0.095	40.54
298.15 K, x1 = 0.1023	39.63
298.15 K, x1 = 0.1227	37.97
298.15 K, x1 = 0.1403	36.42
298.15 K, x1 = 0.157	35.68
298.15 K, x1 = 0.1855	33.97
298.15 K, x1 = 0.195	34.11
298.15 K, x1 = 0.2541	32.92
298.15 K, x1 = 0.3256	32.34
298.15 K, x1 = 0.3959	31.68
298.15 K, x1 = 0.4851	31.45
298.15 K, x1 = 0.5913	30.95
298.15 K, x1 = 0.693	30.37
298.15 K, x1 = 0.7968	29.46
308.15 K, x1 = 0.0217	60.53
308.15 K, x1 = 0.0298	59
308.15 K, x1 = 0.0377	55.56
308.15 K, x1 = 0.0727	48.05
308.15 K, x1 = 0.0871	45.83
308.15 K, x1 = 0.1304	40.09
308.15 K, x1 = 0.1431	38.79
308.15 K, x1 = 0.1615	36.94
308.15 K, x1 = 0.1847	35.7
308.15 K, x1 = 0.2068	33.9
308.15 K, x1 = 0.2327	33.51
308.15 K, x1 = 0.3098	31.04
308.15 K, x1 = 0.3971	30.05
308.15 K, x1 = 0.4999	29.11
308.15 K, x1 = 0.6557	28.41
308.15 K, x1 = 0.7775	28.21
308.15 K, x1 = 0.9592	28.05
